Experimental data from PMC8508980, “Design, Synthesis and Anticancer Profile of New 4-(1H-benzo[d]imidazol-1-yl)pyrimidin-2-amine-Linked Sulfonamide Derivatives with V600EBRAF Inhibitory Effect” (International Journal of Molecular Sciences, 2021).

Columns and labels:
Assay in all cases: NCI 60 cell line screen
Format in all cases: cell-based
[1] = tested on: A498; conditions: Homo sapiens; A498, Renal Cancer; read-out: Percent growth
Protocol: (§1) Anticancer profiling over a panel of 60 cancer cell lines was carried out at the National Cancer Institute (NCI), Bethesda, Maryland, USA, https://dtp.cancer.gov/discovery_development/nci-60/methodology.htm (Last visit 22 September 2021), using the standard procedure (detailed procedure is located in the Supplementary Information page 50 s).
(§2) NCI standard procedure for 60 cell lines assay
(§3) The human tumor cell lines of the cancer screening panel are grown in RPMI 1640 mediu m containing 5% fetal bovine serum and 2 mM L-glutamine. For a typical screening experiment, cells are inoculated into 96 well microtiter plates in 100 μL at plating densities ranging from 5,000 to 40,000 cells/well depending on the doubling time of individual cell lines. After cell inoculation, the microtiter plates are incubated at 37° C, 5 % CO2, 95 % air and 100 % relative humidity for 24 h prior to addition of experimental drugs.
(§4) After 24 h, two plates of each cell line are fixed in situ with TCA, to represent a measurement of the cell population for each cell line at the time of drug addition (Tz). Experimental drugs are solubilized in dimethyl sulfoxide at 400-fold the desired final maximum test concentration (10 µM) and stored frozen prior to use. At the time of drug addition, an aliquot of frozen concentrate is thawed and diluted to twice the desired final maximum test concentration with co mp lete medium containing 50 μg/ml gentamicin. Additional four, 10-fold or ½ log serial dilutions are made to provide a total of five drug concentrations plus control. Aliquots of 100 μl of these different drug dilutions are added to the appropriate microtiter wells already containing 100 μl of medium, resulting in the required final drug concentrations.
(§5) Following drug addition, the plates are incubated for an additional 48 h at 37°C, 5 % CO2, 95 % air, and 100 % relative humidity. For adherent cells, the assay is terminated by the addition of cold TCA. Cells are fixed in situ by the gentle addition of 50 μl of cold 50 % (w/v) TCA (final concentration, 10 % TCA) and incubated for 60 minutes at 4°C. The supernatant is discarded, and the plates are washed five times with tap water and air dried. Sulforhodamine B (SRB) solution (100 μl) at 0.4 % (w/v) in 1 % acetic acid is added to each well, and plates are incubated for 10 minutes at room temperature. After staining, unbound dye is removed by washing five times with 1 % acetic acid and the plates are air dried. Bound stain is subsequently solubilized with 10 mM trizma base, and the absorbance is read on an automated plate reader at a wavelength of 515 nm. For suspension cells, the methodology is the same except that the assay is terminated by fixing settled cells at the bottom of the wells by g ently adding 50 μl of 80 % TCA (final concentration, 16 % TCA). Using the seven absorbance measurements [time zero, (Tz), control growth, (C), and test growth in the presence of drug at the five concentration levels (Ti)], the percentage growth is calculated at each of the drug concentrations levels. Percentage growth inhibition is calculated as:
(§6) [(Ti-Tz)/(C-Tz)] x 100 for concentrations for which Ti>/=Tz
(§7) [(Ti-Tz)/Tz] x 100 for concentrations for which Ti<Tz.
(§8) Three dose response parameters are calculated for each experimental agent. Growth inhibition of […]
(§9) resulting in a 50% reduction in the net protein increase (as measured by SRB staining) in control cells during the drug incubation. The drug concentration resulting in total growth inhibition […]
(§10) (TGI) is calculated from Ti = Tz.

[2] = tested on: A549/ATCC; conditions: Homo sapiens, Non-Small Cell Lung Cancer, read-out: Percent growth
Protocol: as §1, §2, §3, §4, §5, §6, §7, §8, §9, §10

[3] = tested on: ACHN; conditions: Homo sapiens, Renal Cancer, read-out: Percent growth
Protocol: as §1, §2, §3, §4, §5, §6, §7, §8, §9, §10

[4] = tested on: BT-549; conditions: Homo sapiens; BT-549, Breast Cancer; read-out: Percent growth
Protocol: as §1, §2, §3, §4, §5, §6, §7, §8, §9, §10

[5] = tested on: COLO 205; conditions: Homo sapiens; COLO 205, Colon Cancer; read-out: Percent growth
Protocol: as §1, §2, §3, §4, §5, §6, §7, §8, §9, §10

[6] = tested on: DU-145; conditions: Homo sapiens; DU-145, Prostate Cancer; read-out: Percent growth
Protocol: as §1, §2, §3, §4, §5, §6, §7, §8, §9, §10

[7] = tested on: HCC-2998; conditions: Homo sapiens; HCC-2998, Colon Cancer; read-out: Percent growth
Protocol: as §1, §2, §3, §4, §5, §6, §7, §8, §9, §10

[8] = tested on: HCT-116; conditions: Homo sapiens; HCT-116, Colon Cancer; read-out: Percent growth
Protocol: as §1, §2, §3, §4, §5, §6, §7, §8, §9, §10

[9] = tested on: LOX IMVI; conditions: Homo sapiens, Melanoma, read-out: Percent growth
Protocol: as §1, §2, §3, §4, §5, §6, §7, §8, §9, §10

[10] = tested on: MALME-3M; conditions: Homo sapiens, Melanoma, read-out: Percent growth
Protocol: as §1, §2, §3, §4, §5, §6, §7, §8, §9, §10

[11] = tested on: MCF7; conditions: Homo sapiens; MCF7, Breast Cancer; read-out: Percent growth
Protocol: as §1, §2, §3, §4, §5, §6, §7, §8, §9, §10

[12] = tested on: MDA-MB-231/ATCC; conditions: Homo sapiens, Breast Cancer, read-out: Percent growth
Protocol: as §1, §2, §3, §4, §5, §6, §7, §8, §9, §10

[13] = tested on: MDA-MB-435; conditions: Homo sapiens; MDA-MB-435, Melanoma; read-out: Percent growth
Protocol: as §1, §2, §3, §4, §5, §6, §7, §8, §9, §10

[14] = tested on: NCI-H322M; conditions: Homo sapiens, Non-Small Cell Lung Cancer, read-out: Percent growth
Protocol: as §1, §2, §3, §4, §5, §6, §7, §8, §9, §10

[15] = tested on: OVCAR-3; conditions: Homo sapiens; OVCAR-3, Ovarian Cancer; read-out: Percent growth
Protocol: as §1, §2, §3, §4, §5, §6, §7, §8, §9, §10

[16] = tested on: OVCAR-5; conditions: Homo sapiens; OVCAR-5, Ovarian Cancer; read-out: Percent growth
Protocol: as §1, §2, §3, §4, §5, §6, §7, §8, §9, §10

[17] = tested on: SF-268; conditions: Homo sapiens; SF-268, CNS-Cancer; read-out: Percent growth
Protocol: as §1, §2, §3, §4, §5, §6, §7, §8, §9, §10

[18] = tested on: SF-539; conditions: Homo sapiens; SF-539, CNS-Cancer; read-out: Percent growth
Protocol: as §1, §2, §3, §4, §5, §6, §7, §8, §9, §10

[19] = tested on: SK-MEL-2; conditions: Homo sapiens; SK-MEL-2, Melanoma; read-out: Percent growth
Protocol: as §1, §2, §3, §4, §5, §6, §7, §8, §9, §10

[20] = tested on: SK-OV-3; conditions: Homo sapiens; SK-OV-3, Ovarian Cancer; read-out: Percent growth
Protocol: as §1, §2, §3, §4, §5, §6, §7, §8, §9, §10

[21] = tested on: SN12C; conditions: Homo sapiens, Renal Cancer, read-out: Percent growth
Protocol: as §1, §2, §3, §4, §5, §6, §7, §8, §9, §10

[22] = tested on: SW-620; conditions: Homo sapiens; SW-620, Colon Cancer; read-out: Percent growth
Protocol: as §1, §2, §3, §4, §5, §6, §7, §8, §9, §10

| Compound | activity at 10 µM [1] [%] | activity at 10 µM [2] [%] | activity at 10 µM [3] [%] | activity at 10 µM [4] [%] | activity at 10 µM [5] [%] | activity at 10 µM [6] [%] | activity at 10 µM [7] [%] | activity at 10 µM [8] [%] | activity at 10 µM [9] [%] | activity at 10 µM [10] [%] | activity at 10 µM [11] [%] | activity at 10 µM [12] [%] | activity at 10 µM [13] [%] | activity at 10 µM [14] [%] | activity at 10 µM [15] [%] | activity at 10 µM [16] [%] | activity at 10 µM [17] [%] | activity at 10 µM [18] [%] | activity at 10 µM [19] [%] | activity at 10 µM [20] [%] | also measured |
| --- | --- | --- | --- | --- | --- | --- | --- | --- | --- | --- | --- | --- | --- | --- | --- | --- | --- | --- | --- | --- | --- |
| O=S(=O)(NCCNc1nccc(-n2cnc3ccccc32)n1)c1ccccc1 [12a, N-(2-((4-(1H-benzo [d]imidazol-1-yl)pyrimidin-2-yl)amino)ethyl)benzenesulfonamide] | 88.6 | 104 | 94.2 | 106 | 101 | 109 | 106 | 94.6 | 95 | 101 | 89.3 | 87.6 | 109 | 94.9 | 109 | 92.5 | 94.1 | 96.1 | 115 | 101 | activity at 10 µM [21]: 85.1%; activity at 10 µM [22]: 112% |
| O=S(=O)(NCCNc1nccc(-n2cnc3ccccc32)n1)c1ccc(F)cc1 [12b, N-(2-((4-(1H-benzo [d]imidazol-1-yl)pyrimidin-2-yl)amino)ethyl)-4-fluorobenzenesulfonamide] | 80.7 | 91.3 | 88.3 | 82.2 | 102 | 91.5 | 104 | 83.6 | 93.2 | 93.7 | 87.7 | 81.8 | 97.7 | 95.6 | 106 | 86.6 | 88.2 | 83.7 | 101 | 102 | activity at 10 µM [21]: 89.7%; activity at 10 µM [22]: 100% |
| O=S(=O)(NCCNc1nccc(-n2cnc3ccccc32)n1)c1ccc(Cl)cc1 [12c, N-(2-((4-(1H-benzo [d]imidazol-1-yl)pyrimidin-2-yl)amino)ethyl)-4-chlorobenzenesulfonamide] | 84.8 | 103 | 96.4 | 99.3 | 104 | 104 | 101 | 94.6 | 93.5 | 99.5 | 87.9 | 90.5 | 100 | 95.3 | 106 | 91.7 | 92.3 | 91.2 | 109 | 112 | activity at 10 µM [21]: 96.6%; activity at 10 µM [22]: 100% |
